Assays:
[1] = tested on: MT4; assay: Antiviral activity against HIV1 infected MT4 cells by colorimetric XTT assay; format: functional, cell-based; details: Homo sapiens
[2] = molecular target: Human immunodeficiency virus type 1 protease (Human immunodeficiency virus 1, UniProt Q72874); assay: Inhibitory activity against HIV1 protease expressed in Escherichia coli in a fluorometric assay
[3] = tested on: MT4; assay: Antiviral activity against mutant HIV1 (V32I, M46I, A71V, V82A) infected MT4 cells by colorimetric XTT assay; format: functional, cell-based
[4] = Caco-2 cell membrane permeability; format: ADME, cell-based; details: human
[5] = tested on: MT4; assay: Antiviral activity against mutant HIV1 (V32I, M46I, V82A) infected MT4 cells by colorimetric XTT assay; format: functional, cell-based
[6] = Intrinsic clearance (CL) in human liver microsomes at 2 uM; format: ADME, Microsome

Structure (SMILES)	EC50 [1]	Ki [2]	EC50 [3]	Papp [4]	EC50 [5]	microsomal CLint at 2 µM [6]
COC(=O)N[C@H](C(=O)NN(Cc1ccccc1)C[C@@](O)(Cc1ccccc1)C(=O)N[C@H]1c2ccccc2C[C@H]1O)C(C)C	4.8 µM	0.009 µM	–	–	–	–
COC(=O)N[C@H](C(=O)NN(Cc1ccc(Br)cc1)C[C@@](O)(Cc1ccccc1)C(=O)N[C@H]1c2ccccc2C[C@H]1O)C(C)(C)C	1.1 µM	–	0.8 µM	420 nm/s	0.9 µM	–
CC(C)[C@H](NC(=O)OCc1ccccc1)C(=O)NN(Cc1ccccc1)C[C@](O)(Cc1ccccc1)C(=O)N[C@H]1c2ccccc2C[C@H]1O	> 10 µM	0.87 µM	–	–	–	–
COC(=O)N[C@H](C(=O)NN(Cc1ccccc1)C[C@](O)(Cc1ccccc1)C(=O)N[C@H]1c2ccccc2C[C@H]1O)C(C)(C)C	> 10 µM	–	–	–	–	–
CC(C)(C)[C@H](NS(C)(=O)=O)C(=O)NN(Cc1ccccc1)C[C@@](O)(Cc1ccccc1)C(=O)N[C@H]1c2ccccc2C[C@H]1O	> 10 µM	0.063 µM	–	–	–	–
CC(C)[C@H](NC(=O)OCc1ccccc1)C(=O)NN(Cc1ccccc1)C[C@@](O)(Cc1ccccc1)C(=O)N[C@H]1c2ccccc2C[C@H]1O	> 10 µM	0.023 µM	–	–	–	–
CC(C)(C)[C@H](NC(=O)NCc1ccccc1)C(=O)NN(Cc1ccccc1)C[C@@](O)(Cc1ccccc1)C(=O)N[C@H]1c2ccccc2C[C@H]1O	> 10 µM	0.022 µM	–	–	–	–
CC(C)(C)[C@H](NC(=O)OCc1ccccc1)C(=O)NN(Cc1ccccc1)C[C@@](O)(Cc1ccccc1)C(=O)N[C@H]1c2ccccc2C[C@H]1O	> 10 µM	0.018 µM	–	–	–	–
COC(=O)N[C@H](C(=O)NN(Cc1ccccc1)C[C@@](O)(Cc1ccccc1)C(=O)N[C@H]1c2ccccc2C[C@H]1O)C(C)(C)C	1.9 µM	0.006 µM	1.6 µM	350 nm/s	2 µM	527 µL/min/mg
CC(C)[C@H](NC(=O)OCc1ccccc1)C(=O)NN(Cc1ccc(Br)cc1)C[C@@](O)(Cc1ccccc1)C(=O)N[C@H]1c2ccccc2C[C@H]1O	> 10 µM	0.017 µM	–	–	–	–

From ChEMBL document CHEMBL1141220, “A new class of HIV-1 protease inhibitors containing a tertiary alcohol in the transition-state mimicking scaffold” (J Med Chem, 2005)
